{"source": "patent US10202361B2", "about": "“Pyridazinones as herbicides” (E I DU PONT DE NEMOURS AND COMPANY, priority 2014, dated 2019)", "assay_type_in_all_cases": "in vivo", "key": {"[1]": {"test_system": "cocklebur (common cocklebur, Xanthium strumarium)", "assay": "Test E pre-/postemergence greenhouse herbicide test", "conditions": "Preemergence, scale 0 to 100"}, "[2]": {"test_system": "smartweed (ladysthumb smartweed, Polygonum persicaria)", "assay": "Test E pre-/postemergence greenhouse herbicide test", "conditions": "scale 0 to 100", "in_short": "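Formulated test chemical (solvent mixture with surfactant) is applied preemergence to seeded silt loam and postemergence to plants at 1- to 4-leaf stage grown in peat-based medium. Greenhouse holding 14 to 21 d; response scored visually, 0 no effect to 100 complete control.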"}, "[3]": {"test_system": "poinsettia, wild (wild poinsettia, Euphorbia heterophylla)", "assay": "Test E pre-/postemergence greenhouse herbicide test", "conditions": "scale 0 to 100"}, "[4]": {"test_system": "waterhemp_RES1 (ALS & Triazine resistant common waterhemp, Amaranthus rudis)", "assay": "Test E postemergence greenhouse herbicide test", "conditions": "scale 0 to 100", "protocol": "(§1) At the same time, plants from these crop and weed species and also waterhemp_RES1, (ALS & Triazine resistant common waterhemp, Amaranthus rudis), and waterhemp_RES2, (ALS & HPPD resistant common waterhemp, Amaranthus rudis) were planted in pots containing Redi-Earth® planting medium (Scotts Company, 14111 Scottslawn Road, Marysville, Ohio 43041) comprising spaghnum peat moss, vermiculite, wetting agent and starter nutrients were treated with postemergence applications of test chemicals formulated in the same manner. Plants ranged in height from 2 to 18 cm for postemergence treatments (1- to 4-leaf stage). Treated plants and controls were maintained in a greenhouse for 14 to 21 d, after which time all species were compared to controls and visually evaluated. Plant response ratings, summarized in Table E, are based on a scale of 0 to 100 where 0 is no effect and 100 is complete control. A dash (-) response means no test result."}, "[5]": {"test_system": "waterhemp_RES2 (ALS & HPPD resistant common waterhemp, Amaranthus rudis)", "assay": "Test E postemergence greenhouse herbicide test", "conditions": "scale 0 to 100", "protocol": "as §1"}, "[6]": {"test_system": "mustard, wild (wild mustard, Sinapis arvensis)", "assay": "Test D pre-/postemergence controlled growth environment herbicide test", "conditions": "scale 0 to 100", "in_short": "(§2)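 Ratings come from visual comparison with untreated plants on a 0–100 scale, 0 meaning no effect. Test chemicals in surfactant-containing solvent were applied either to soil at planting (silt loam) or over foliage of 2–18 cm plants in peat-based medium, then held 14–21 d in a controlled growth environment.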"}, "[7]": {"test_system": "pigweed (Amaranthus retroflexus)", "assay": "Test D pre-/postemergence controlled growth environment herbicide test", "conditions": "scale 0 to 100", "in_short": "as §2"}, "[8]": {"test_system": "bluegrass (annual bluegrass, Poa annua)", "assay": "Test D pre-/postemergence controlled growth environment herbicide test", "conditions": "scale 0 to 100", "in_short": "as §2"}}, "data": [{"compound": "COc1cc(=O)n(-c2ccc(F)cc2)nc1Cc1ccnc(C(F)(F)F)c1", "note": "[Compound 17, 2-(4-fluorophenyl)-5-methoxy-6-[[2-(trifluoromethyl)-4-pyridinyl]methyl]-3 (2H)-pyridazinone]", "values": [{"measurement": "Plant response rating: Cocklebur", "setting": "[1]; 16 g ai/ha", "value": 0}, {"measurement": "Plant response rating: Cocklebur", "setting": "[1]; 62 g ai/ha", "value": 0}, {"measurement": "Plant response rating: Smartweed", "setting": "[2]; Postemergence, 16 g ai/ha", "value": 10}, {"measurement": "Plant response rating: Smartweed", "setting": "[2]; Postemergence, 31 g ai/ha", "value": 15}, {"measurement": "Plant response rating: Smartweed", "setting": "[2]; Postemergence, 62 g ai/ha", "value": 30}, {"measurement": "Plant response rating: Smartweed", "setting": "[2]; Postemergence, 125 g ai/ha", "value": 40}, {"measurement": "Plant response rating: Smartweed", "setting": "[2]; Postemergence, 250 g ai/ha", "value": 60}, {"measurement": "Plant response rating: Smartweed", "setting": "[2]; Preemergence, 16 g ai/ha", "value": 0}, {"measurement": "Plant response rating: Smartweed", "setting": "[2]; Preemergence, 31 g ai/ha", "value": 0}, {"measurement": "Plant response rating: Smartweed", "setting": "[2]; Preemergence, 62 g ai/ha", "value": 0}, {"measurement": "Plant response rating: Smartweed", "setting": "[2]; Preemergence, 125 g ai/ha", "value": 20}, {"measurement": "Plant response rating: Smartweed", "setting": "[2]; Preemergence, 250 g ai/ha", "value": 75}, {"measurement": "Plant response rating: Poinsettia, Wild", "setting": "[3]; Postemergence, 16 g ai/ha", "value": 20}, {"measurement": "Plant response rating: Poinsettia, Wild", "setting": "[3]; Postemergence, 31 g ai/ha", "value": 30}, {"measurement": "Plant response rating: Poinsettia, Wild", "setting": "[3]; Postemergence, 62 g ai/ha", "value": 40}, {"measurement": "Plant response rating: Poinsettia, Wild", "setting": "[3]; Postemergence, 125 g ai/ha", "value": 40}, {"measurement": "Plant response rating: Poinsettia, Wild", "setting": "[3]; Postemergence, 250 g ai/ha", "value": 50}, {"measurement": "Plant response rating: Poinsettia, Wild", "setting": "[3]; Preemergence, 16 g ai/ha", "value": 20}, {"measurement": "Plant response rating: Poinsettia, Wild", "setting": "[3]; Preemergence, 31 g ai/ha", "value": 20}, {"measurement": "Plant response rating: Poinsettia, Wild", "setting": "[3]; Preemergence, 62 g ai/ha", "value": 30}, {"measurement": "Plant response rating: Poinsettia, Wild", "setting": "[3]; Preemergence, 125 g ai/ha", "value": 40}, {"measurement": "Plant response rating: Poinsettia, Wild", "setting": "[3]; Preemergence, 250 g ai/ha", "value": 100}, {"measurement": "Plant response rating: Waterhemp_RES1", "setting": "[4]; 16 g ai/ha", "value": 50}, {"measurement": "Plant response rating: Waterhemp_RES1", "setting": "[4]; 31 g ai/ha", "value": 60}, {"measurement": "Plant response rating: Waterhemp_RES1", "setting": "[4]; 62 g ai/ha", "value": 60}, {"measurement": "Plant response rating: Waterhemp_RES1", "setting": "[4]; 125 g ai/ha", "value": 85}, {"measurement": "Plant response rating: Waterhemp_RES1", "setting": "[4]; 250 g ai/ha", "value": 90}, {"measurement": "Plant response rating: Waterhemp_RES2", "setting": "[5]; 16 g ai/ha", "value": 60}, {"measurement": "Plant response rating: Waterhemp_RES2", "setting": "[5]; 31 g ai/ha", "value": 80}, {"measurement": "Plant response rating: Waterhemp_RES2", "setting": "[5]; 62 g ai/ha", "value": 80}, {"measurement": "Plant response rating: Waterhemp_RES2", "setting": "[5]; 125 g ai/ha", "value": 90}, {"measurement": "Plant response rating: Waterhemp_RES2", "setting": "[5]; 250 g ai/ha", "value": 95}, {"measurement": "Plant response rating", "setting": "[6]; Postemergence, 31 g ai/ha", "value": 20}, {"measurement": "Plant response rating", "setting": "[6]; Postemergence, 62 g ai/ha", "value": 50}, {"measurement": "Plant response rating", "setting": "[6]; Postemergence, 125 g ai/ha", "value": 80}, {"measurement": "Plant response rating", "setting": "[6]; Postemergence, 250 g ai/ha", "value": 100}, {"measurement": "Plant response rating", "setting": "[6]; Postemergence, 500 g ai/ha", "value": 100}, {"measurement": "Plant response rating", "setting": "[6]; Preemergence, 31 g ai/ha", "value": 100}, {"measurement": "Plant response rating", "setting": "[6]; Preemergence, 62 g ai/ha", "value": 100}, {"measurement": "Plant response rating", "setting": "[6]; Preemergence, 125 g ai/ha", "value": 100}, {"measurement": "Plant response rating", "setting": "[6]; Preemergence, 250 g ai/ha", "value": 100}, {"measurement": "Plant response rating", "setting": "[6]; Preemergence, 500 g ai/ha", "value": 100}, {"measurement": "Plant response rating", "setting": "[7]; Postemergence, 31 g ai/ha", "value": 20}, {"measurement": "Plant response rating", "setting": "[7]; Postemergence, 62 g ai/ha", "value": 30}, {"measurement": "Plant response rating", "setting": "[7]; Postemergence, 125 g ai/ha", "value": 30}, {"measurement": "Plant response rating", "setting": "[7]; Postemergence, 250 g ai/ha", "value": 70}, {"measurement": "Plant response rating", "setting": "[7]; Postemergence, 500 g ai/ha", "value": 95}, {"measurement": "Plant response rating", "setting": "[7]; Preemergence, 31 g ai/ha", "value": 10}, {"measurement": "Plant response rating", "setting": "[7]; Preemergence, 62 g ai/ha", "value": 100}, {"measurement": "Plant response rating", "setting": "[7]; Preemergence, 125 g ai/ha", "value": 100}, {"measurement": "Plant response rating", "setting": "[7]; Preemergence, 250 g ai/ha", "value": 100}, {"measurement": "Plant response rating", "setting": "[7]; Preemergence, 500 g ai/ha", "value": 100}, {"measurement": "Plant response rating", "setting": "[8]; Postemergence, 31 g ai/ha", "value": 5}, {"measurement": "Plant response rating", "setting": "[8]; Postemergence, 62 g ai/ha", "value": 5}, {"measurement": "Plant response rating", "setting": "[8]; Postemergence, 125 g ai/ha", "value": 5}, {"measurement": "Plant response rating", "setting": "[8]; Postemergence, 250 g ai/ha", "value": 10}, {"measurement": "Plant response rating", "setting": "[8]; Postemergence, 500 g ai/ha", "value": 20}, {"measurement": "Plant response rating", "setting": "[8]; Preemergence, 31 g ai/ha", "value": 0}, {"measurement": "Plant response rating", "setting": "[8]; Preemergence, 62 g ai/ha", "value": 0}, {"measurement": "Plant response rating", "setting": "[8]; Preemergence, 125 g ai/ha", "value": 25}, {"measurement": "Plant response rating", "setting": "[8]; Preemergence, 250 g ai/ha", "value": 60}, {"measurement": "Plant response rating", "setting": "[8]; Preemergence, 500 g ai/ha", "value": 85}]}]}
